Reference: PubChem BioAssay AID256 (DTP/NCI, 2004)
Values joined by “and” are separate entries in the source; they are usually repeats but may differ in a detail not shown here. Identical values can stand only once. Inconclusive results and toxic doses are left out. How the source made its calls: active means survival T/C of 150% or more; inactive means T/C below 125% in these data.

System: CD2F1 mice, L1210 leukemia ip, survival T/C
Experiment: NCI In Vivo Anticancer Drug Screen. Data for tumor model L1210 Leukemia (intraperitoneal) in CD2F1 (CDF1) mice
Settings: higher = longer survival
Summary of the method: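 Read-out first: treated-group measurement over vehicle-control measurement, expressed as a ratio. Animals bore a transplanted tumor line and were dosed with compound or vehicle.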

[1] = endpoint: mean survival time, dose: 100.0 mg/kg/injection, schedule: Q01DX009 (ip), vehicle: saline with Tween-80
[2] = endpoint: mean survival time, dose: 100.0 mg/kg/injection, schedule: Q04DX003 (ip), vehicle: saline with Tween-80
[3] = endpoint: mean survival time, dose: 200.0 mg/kg/injection, schedule: Q01DX009 (ip), vehicle: saline with Tween-80
[4] = endpoint: mean survival time, dose: 200.0 mg/kg/injection, schedule: Q04DX003 (ip), vehicle: saline with Tween-80
[5] = endpoint: mean survival time, dose: 400.0 mg/kg/injection, schedule: Q04DX003 (ip), vehicle: saline with Tween-80
[6] = endpoint: mean survival time, dose: 100.0 mg/kg/injection, schedule: Q01DX001 (ip), vehicle: saline
[7] = endpoint: mean survival time, dose: 200.0 mg/kg/injection, schedule: Q01DX001 (ip), vehicle: saline
[8] = endpoint: mean survival time, dose: 12.5 mg/kg/injection, schedule: Q01DX005 (ip), vehicle: water

Measured: T/C

O=C(O)c1cc(Br)c(-c2c(Br)cc(C(=O)O)cc2[N+](=O)[O-])c([N+](=O)[O-])c1
inactive: [1] 98 % of control | [2] 86 % of control | [3] 100 % of control | [4] 94 % of control | [5] 91 % of control

CN(C)C=C1C(=O)NC(=O)NC1=O
inactive: [6] 91 % of control | [7] 87 % of control

N#CC1(C2(C#N)CCCCC2)CCCCC1
inactive: endpoint: mean survival time, dose: 100.0 mg/kg/injection, schedule: Q01DX001 (ip), vehicle: Klucel (hydroxypropylcellulose) (HPC) 116 % of control | endpoint: mean survival time, dose: 200.0 mg/kg/injection, schedule: Q01DX001 (ip), vehicle: Klucel (hydroxypropylcellulose) (HPC) 92 % of control | endpoint: mean survival time, dose: 400.0 mg/kg/injection, schedule: Q01DX001 (ip), vehicle: Klucel (hydroxypropylcellulose) (HPC) 100 % of control

COC1OC(Nc2nc(SC)[nH]c(=O)c2C(C)=O)C(O)C(O)C1O (stereo unspecified)
inactive: endpoint: median survival time, dose: 12.5 mg/kg/injection, schedule: Q01DX005 (ip), vehicle: saline with Tween-80 98 % of control | endpoint: median survival time, dose: 25.0 mg/kg/injection, schedule: Q01DX005 (ip), vehicle: saline with Tween-80 97 % of control | endpoint: median survival time, dose: 50.0 mg/kg/injection, schedule: Q01DX005 (ip), vehicle: saline with Tween-80 94 % of control | endpoint: median survival time, dose: 100.0 mg/kg/injection, schedule: Q01DX005 (ip), vehicle: saline with Tween-80 95 % of control | endpoint: median survival time, dose: 200.0 mg/kg/injection, schedule: Q01DX005 (ip), vehicle: saline with Tween-80 97 % of control

O=C(Nc1ccc(N=C=S)cc1Cl)c1cc(Cl)cc(Cl)c1O
inactive: endpoint: mean survival time, dose: 6.25 mg/kg/injection, schedule: Q01DX009 (ip), vehicle: Klucel (hydroxypropylcellulose) (HPC) 91 % of control and 104 % of control | endpoint: mean survival time, dose: 12.5 mg/kg/injection, schedule: Q01DX009 (ip), vehicle: Klucel (hydroxypropylcellulose) (HPC) 97 % of control | endpoint: mean survival time, dose: 25.0 mg/kg/injection, schedule: Q01DX009 (ip), vehicle: Klucel (hydroxypropylcellulose) (HPC) 96 % of control and 109 % of control | endpoint: mean survival time, dose: 50.0 mg/kg/injection, schedule: Q01DX009 (ip), vehicle: Klucel (hydroxypropylcellulose) (HPC) 113 % of control and 103 % of control | endpoint: mean survival time, dose: 100.0 mg/kg/injection, schedule: Q01DX009 (ip), vehicle: Klucel (hydroxypropylcellulose) (HPC) 97 % of control

CC1(C)SC(C(NC(=O)Cc2ccccc2)C(=O)O)NC1C(=O)O (stereo unspecified)
inactive: [2] 101 % of control | [4] 103 % of control | [5] 95 % of control

CC(=O)OC1CCC2(C)C(CCC3(C)C2CC=C2C4CC(C)(C)CCC4(C)CCC23C)C1(C)C (stereo unspecified)
inactive: [6] 101 % of control | [7] 101 % of control | endpoint: mean survival time, dose: 400.0 mg/kg/injection, schedule: Q01DX001 (ip), vehicle: saline 101 % of control

O=c1[nH]c(=O)n(C2CC(O)C(CO)O2)cc1-c1ccccc1 (stereo unspecified)
inactive: endpoint: mean survival time, dose: 12.5 mg/kg/injection, schedule: Q01DX005 (ip), vehicle: distilled water + Tween-80 98 % of control | endpoint: mean survival time, dose: 25.0 mg/kg/injection, schedule: Q01DX005 (ip), vehicle: distilled water + Tween-80 95 % of control | endpoint: mean survival time, dose: 50.0 mg/kg/injection, schedule: Q01DX005 (ip), vehicle: distilled water + Tween-80 98 % of control | endpoint: mean survival time, dose: 100.0 mg/kg/injection, schedule: Q01DX005 (ip), vehicle: distilled water + Tween-80 95 % of control | endpoint: mean survival time, dose: 200.0 mg/kg/injection, schedule: Q01DX005 (ip), vehicle: distilled water + Tween-80 98 % of control

C[CH2][Sn]1([CH2]C)[O]C2C(CO)OC(n3ccc(N)nc3=O)C2[O]1 (stereo unspecified)
inactive: endpoint: mean survival time, dose: 1.56 mg/kg/injection, schedule: Q01DX005 (ip), vehicle: water 97 % of control | endpoint: mean survival time, dose: 3.13 mg/kg/injection, schedule: Q01DX005 (ip), vehicle: water 111 % of control | endpoint: mean survival time, dose: 6.25 mg/kg/injection, schedule: Q01DX005 (ip), vehicle: water 100 % of control | endpoint: mean survival time, dose: 12.5 mg/kg/injection, schedule: Q01DX005 (ip), vehicle: other 103 % of control | [8] 105 % of control

Cc1csc2ncn(C3OC(CO)C(O)C3O)c(=O)c12 (stereo unspecified)
inactive: endpoint: mean survival time, dose: 12.5 mg/kg/injection, schedule: Q01DX009 (ip), vehicle: saline with Tween-80 110 % of control | endpoint: mean survival time, dose: 25.0 mg/kg/injection, schedule: Q01DX009 (ip), vehicle: saline with Tween-80 101 % of control | endpoint: mean survival time, dose: 50.0 mg/kg/injection, schedule: Q01DX009 (ip), vehicle: saline with Tween-80 94 % of control

Cn1c(=O)c2c(nc(N3CCOCC3)n2CCCNCC(O)c2cc(O)cc(O)c2)n(C)c1=O (stereo unspecified)
inactive: [8] 100 % of control | endpoint: mean survival time, dose: 25.0 mg/kg/injection, schedule: Q01DX005 (ip), vehicle: water 96 % of control | endpoint: mean survival time, dose: 50.0 mg/kg/injection, schedule: Q01DX005 (ip), vehicle: water 94 % of control | endpoint: mean survival time, dose: 100.0 mg/kg/injection, schedule: Q01DX005 (ip), vehicle: water 97 % of control | endpoint: mean survival time, dose: 200.0 mg/kg/injection, schedule: Q01DX005 (ip), vehicle: water 92 % of control

c1cc2c(c(OCC3=NCCN3)c1)CCCC2
inactive: endpoint: mean survival time, dose: 25.0 mg/kg/injection, schedule: Q04DX002 (ip), vehicle: saline 94 % of control | endpoint: mean survival time, dose: 50.0 mg/kg/injection, schedule: Q04DX002 (ip), vehicle: saline 110 % of control

COc1ccc(NC(=O)CCC(=O)Oc2ccccc2)cc1
inactive: [1] 94 % of control | [2] 100 % of control | [3] 97 % of control | [4] 100 % of control | endpoint: mean survival time, dose: 400.0 mg/kg/injection, schedule: Q01DX009 (ip), vehicle: saline with Tween-80 94 % of control | [5] 94 % of control

COC(=O)C(C)S(=O)(=O)O (stereo unspecified)
inactive: endpoint: mean survival time, dose: 100.0 mg/kg/injection, schedule: Q04DX002 (ip), vehicle: saline 106 % of control | endpoint: mean survival time, dose: 200.0 mg/kg/injection, schedule: Q04DX002 (ip), vehicle: saline 106 % of control | endpoint: mean survival time, dose: 400.0 mg/kg/injection, schedule: Q04DX002 (ip), vehicle: saline 95 % of control

COC1C(O)C(C)OC(OC2C(Oc3cccc4c(O)c5c(=O)oc6ccc(C)c7c(=O)oc(c34)c5c67)OC(C)C(O)C2O)C1O (stereo unspecified)
inactive: endpoint: mean survival time, dose: 5.0 mg/kg/injection, schedule: Q01DX009 (ip), vehicle: saline with Tween-80 116 % of control | endpoint: mean survival time, dose: 10.0 mg/kg/injection, schedule: Q01DX009 (ip), vehicle: saline with Tween-80 115 % of control | endpoint: mean survival time, dose: 20.0 mg/kg/injection, schedule: Q01DX009 (ip), vehicle: saline with Tween-80 116 % of control | endpoint: mean survival time, dose: 80.0 mg/kg/injection, schedule: Q01DX009 (ip), vehicle: saline with Tween-80 123 % of control

CN(C)c1ccccc1C1=CCCCC1
inactive: endpoint: mean survival time, dose: 50.0 mg/kg/injection, schedule: Q04DX003 (ip), vehicle: saline 96 % of control | endpoint: mean survival time, dose: 100.0 mg/kg/injection, schedule: Q04DX003 (ip), vehicle: saline 98 % of control | endpoint: mean survival time, dose: 200.0 mg/kg/injection, schedule: Q04DX003 (ip), vehicle: saline 104 % of control

Nc1ccc(N(c2ccccc2)c2ccccc2)cc1
inactive: endpoint: mean survival time, dose: 100.0 mg/kg/injection, schedule: Q04DX002 (ip), vehicle: Klucel (hydroxypropylcellulose) (HPC) 97 % of control | endpoint: mean survival time, dose: 200.0 mg/kg/injection, schedule: Q04DX002 (ip), vehicle: Klucel (hydroxypropylcellulose) (HPC) 86 % of control | endpoint: mean survival time, dose: 400.0 mg/kg/injection, schedule: Q04DX002 (ip), vehicle: Klucel (hydroxypropylcellulose) (HPC) 89 % of control

COc1cc2c3c(c1OC)C1(C=CC(=O)C=C1)CC3N(C(C)=O)CC2 (stereo unspecified)
inactive: [2] 97 % of control | [4] 95 % of control | [5] 94 % of control

CN1C=Cc2ccccc2C1
inactive: endpoint: mean survival time, dose: 100.0 mg/kg/injection, schedule: Q01DX001 (ip), vehicle: saline with Tween-80 93 % of control | [1] 93 % of control | endpoint: mean survival time, dose: 200.0 mg/kg/injection, schedule: Q01DX001 (ip), vehicle: saline with Tween-80 95 % of control | endpoint: mean survival time, dose: 400.0 mg/kg/injection, schedule: Q01DX001 (ip), vehicle: saline with Tween-80 93 % of control

CCN(Cc1ccc(Cl)c(Cl)c1)c1ccc2nc(N)nc(N)c2c1C
inactive: endpoint: mean survival time, dose: 1.5 mg/kg/injection, schedule: Q01DX009 (ip), vehicle: water 97 % of control | endpoint: mean survival time, dose: 3.0 mg/kg/injection, schedule: Q01DX009 (ip), vehicle: water 106 % of control | endpoint: mean survival time, dose: 24.0 mg/kg/injection, schedule: Q01DX009 (ip), vehicle: water 101 % of control | endpoint: median survival time, dose: 1.5 mg/kg/injection, schedule: Q01DX009 (ip), vehicle: water 103 % of control | endpoint: median survival time, dose: 3.0 mg/kg/injection, schedule: Q01DX009 (ip), vehicle: water 111 % of control | endpoint: median survival time, dose: 6.0 mg/kg/injection, schedule: Q01DX009 (ip), vehicle: water 112 % of control

NC(=Nc1ccccc1)SCCS(=O)(=O)O
inactive: [2] 102 % of control | [4] 100 % of control | [5] 104 % of control
